SMILES strings stand for the structures. pKi: −log10 of the molar value.

The first assay concerns the target Gastrin/cholecystokinin type B receptor (Cavia porcellus). Description: Tested for inhibition of [3H]pCCK-8 specific binding to cholecystokinin type B receptor in guinea pig brain cortex.
In turn, `CC(Cc1c[nH]c2ccccc12)(NC(=O)OC1[C@H]2C[C@@H]3C[C@@H](C[C@H]1C3)C2)C(=O)NCCc1cccc2ccccc12` (stereo partly drawn) [[2-(1H-Indol-3-yl)-1-methyl-1-(2-naphthalen-1-yl-ethylcarbamoyl)-ethyl]-carbamic acid adamantan-2-yl ester] had a pKi of 7.05.

For the next assay, the target named is Cholecystokinin receptor type A (Rattus norvegicus) (UniProt P30551). Description: Tested for binding affinity towards cholecystokinin type A receptor in rat pancreas by displacement of [3H]pCCK-8 radioligand.
Regarding `CC(Cc1ccc2ccccc2c1)(NC(=O)OC1[C@H]2C[C@@H]3C[C@@H](C[C@H]1C3)C2)C(=O)N(CCc1ccccc1)CC(=O)O` (stereo partly drawn) [{[2-(Adamantan-2-yloxycarbonylamino)-2-methyl-3-naphthalen-2-yl-propionyl]-phenethyl-amino}-acetic acid], the pKi is 5.52.

Another assay addresses Gastrin/cholecystokinin type B receptor (Cavia porcellus). Kind of assay: Tested for inhibition of [3H]pCCK-8 specific binding to cholecystokinin type B receptor in guinea pig brain cortex. This is another data set of the same source.
On to `CC(Cc1c[nH]c2ccccc12)(C(=O)OC1[C@H]2C[C@@H]3C[C@@H](C[C@H]1C3)C2)C(=O)N(CCc1ccc(Cl)cc1Cl)CC(=O)O` (stereo partly drawn) [N-Carboxymethyl-N-[2-(2,4-dichloro-phenyl)-ethyl]-2-(1H-indol-3-ylmethyl)-2-methyl-malonamic acid adamantan-2-yl ester], for which the pKi is 7.92.

In turn, `CC(Cc1c[nH]c2ccccc12)(NC(=O)OC1[C@H]2C[C@@H]3C[C@@H](C[C@H]1C3)C2)C(=O)NCCc1ccc(Cl)cc1Cl` (stereo partly drawn) [[1-[2-(2,4-Dichloro-phenyl)-ethylcarbamoyl]-2-(1H-indol-3-yl)-1-methyl-ethyl]-carbamic acid adamantan-2-yl ester] showed a pKi of 7.57.

In turn, `CC(Cc1c[nH]c2ccccc12)(NC(=O)OC1[C@H]2C[C@@H]3C[C@@H](C[C@H]1C3)C2)C(=O)NCCc1ccc(Br)cc1` (stereo partly drawn) [[1-[2-(4-Bromo-phenyl)-ethylcarbamoyl]-2-(1H-indol-3-yl)-1-methyl-ethyl]-carbamic acid adamantan-2-yl ester] gave a negative logarithm of the Ki (pKi) of 7.29.

Turning to `CC(Cc1cccc2ccccc12)(NC(=O)OC1[C@H]2C[C@@H]3C[C@@H](C[C@H]1C3)C2)C(=O)N(CCc1ccccc1)CC(=O)O` (stereo partly drawn) [{[2-(Adamantan-2-yloxycarbonylamino)-2-methyl-3-naphthalen-1-yl-propionyl]-phenethyl-amino}-acetic acid], the pKi is 6.87.

Consider `CC(Cc1c[nH]c2ccccc12)(NC(=O)OC1[C@H]2C[C@@H]3C[C@@H](C[C@H]1C3)C2)C(=O)NCCc1ccc([N+](=O)[O-])cc1` (stereo partly drawn) [{2-(1H-Indol-3-yl)-1-methyl-1-[2-(4-nitro-phenyl)-ethylcarbamoyl]-ethyl}-carbamic acid adamantan-2-yl ester], for which the pKi was 7.10.

Compound `CC(Cc1c[nH]c2ccccc12)(NC(=O)OC1[C@H]2C[C@@H]3C[C@@H](C[C@H]1C3)C2)C(=O)N(CCc1ccc(Cl)cc1Cl)CC(=O)O` (stereo partly drawn) [{[2-(Adamantan-2-yloxycarbonylamino)-3-(1H-indol-3-yl)-2-methyl-propionyl]-[2-(2,4-dichloro-phenyl)-ethyl]-amino}-acetic acid] gave a pKi of 7.43.

`CCOC(=O)CN(CCc1ccccc1)C(=O)C(C)(Cc1c[nH]c2ccccc12)NC(=O)OC1[C@H]2C[C@@H]3C[C@@H](C[C@H]1C3)C2` (stereo partly drawn) [{[2-(Adamantan-2-yloxycarbonylamino)-3-(1H-indol-3-yl)-2-methyl-propionyl]-phenethyl-amino}-acetic acid ethyl ester] showed a pKi of 6.27.

`CC(Cc1c[nH]c2ccccc12)(NC(=O)OC1[C@H]2C[C@@H]3C[C@@H](C[C@H]1C3)C2)C(=O)NCC(=O)O` (stereo partly drawn) [[2-(Adamantan-2-yloxycarbonylamino)-3-(1H-indol-3-yl)-2-methyl-propionylamino]-acetic acid]: the pKi was 6.01.

`CC(Cc1c[nH]c2ccccc12)(NC(=O)OC1[C@H]2C[C@@H]3C[C@@H](C[C@H]1C3)C2)C(=O)NCc1ccccc1` (stereo partly drawn) [[1-Benzylcarbamoyl-2-(1H-indol-3-yl)-1-methyl-ethyl]-carbamic acid adamantan-2-yl ester]: the pKi was 6.64.

Take `CC(Cc1c[nH]c2ccccc12)(NC(=O)OC1[C@H]2C[C@@H]3C[C@@H](C[C@H]1C3)C2)C(=O)Nc1ccc2ccccc2c1` (stereo partly drawn) [[2-(1H-Indol-3-yl)-1-methyl-1-(naphthalen-2-ylcarbamoyl)-ethyl]-carbamic acid adamantan-2-yl ester]: the pKi is 6.40.

The compound `COc1ccc(CCNC(=O)C(C)(Cc2c[nH]c3ccccc23)NC(=O)OC2[C@H]3C[C@@H]4C[C@@H](C[C@H]2C4)C3)cc1` (stereo partly drawn) [{2-(1H-Indol-3-yl)-1-[2-(4-methoxy-phenyl)-ethylcarbamoyl]-1-methyl-ethyl}-carbamic acid adamantan-2-yl ester] gave a pKi of 6.94.

Values taken from BindingDB's records for doi:10.1021/jm00072a005 (University of Paris, 1993).
